Our source for the Observed efficacy values is patent US20120316062A1 (priority 2009, published 2012).

The test system of one experiment is Pyricularia oryzae. It counts as cell-based. To be noted: single active, growth at 405 nm 7 days after inoculation, 18° C.
The next experiment concerns Alternaria solani. Briefly: Activity against Alternaria solani in the microtiterplate test. The format is cell-based. To be noted: single active, growth at 405 nm 7 days after inoculation, 18° C.

Like-named read-outs stand apart in the source and are kept apart here.

Consider `O=C(NC(=O)c1c(F)cccc1F)Nc1ccc(Oc2ccc(C(F)(F)F)cc2Cl)cc1F` [flufenoxuron], for which the Observed efficacy amounted to 6 in the experiment on Pyricularia oryzae (1 ppm) and 0 in the experiment on Alternaria solani (16 ppm).

Turning to `COC(=O)N(OC)c1ccccc1COc1ccn(-c2ccc(Cl)cc2)n1` [pyraclostrobin], the figures for the Observed efficacy in the experiment with Pyricularia oryzae (0.004 ppm) and with Alternaria solani (0.063 ppm) were 23 and 56, respectively.
